Source: article PMC12670426 (Journal of Medicinal Chemistry, 2025)
Like-named read-outs stand apart in the source and are kept apart here.

Assays:
[1] = biological target: T1, human galectin-1 (Gal-1, full length) (Homo sapiens, UniProt P09382); test: Competitive fluorescence polarization assay, Gal-1; type: binding
T1 construct: Gal-1 is a prototype galectin consisting of a single CRD and was used in full length; 6xHis tag with TEV protease site (N, cleaved yes); made in house; host or cells: BL21 Escherichia coli (pET-15b)
Summary of the method: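 Competitive fluorescence polarization (anisotropy) with a fluorescent probe; full-length Gal-1 and C-terminal CRD construct of Gal-3. Read after 30–60 min incubation at 25 °C. Kd fitted with Wang's exact cubic competitive model, rmin/rmax fixed from direct binding.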

[2] = Microsomal stability assay, human liver microsomes; type: in vitro ADME; details: pooled liver microsomes, pH 7.4, human liver microsomes 0.5 mg/mL, NADPH
Experimental: Microsomal stability was determined using 0.5 mg/mL of pooled human, mouse, or rat liver microsomes (Thermo Fisher Scientific) in 90 mM TRIS-Cl buffer (pH 7.4) containing 2 mM NADPH and 2 mM MgCl2. Test compounds (10 μM) were added, and the resulting mixture was incubated at 37 °C for 10, 60, 120, and 180 min. The reactions were terminated by the addition of four volumes of ice-cold methanol, followed by vigorous mixing. The samples were left at −20 °C for 30 min and then stored at 4 °C overnight. The next day, samples were centrifuged, and supernatants were diluted with four volumes of 30% methanol in water. Zero time points were prepared by adding ice-cold methanol to the mixture of compounds and cofactors prior to the addition of microsomes. The samples were then analyzed using the Echo-MS system (SCIEX) with MRM transition monitoring, except for compound 3af, which was analyzed by LC–MS/MS as described in the plasma stability assay.

[3] = Plasma protein binding assay (rapid equilibrium dialysis), rat plasma; type: in vitro ADME; details: fraction bound, read-out: plasma protein binding Fb rat (converted)
Experimental: Test compound (10 μM) was incubated at 37 °C for 4 h with mouse, rat, or human plasma (Biowest) in the donor well of a rapid equilibrium dialysis plate (Thermo Fisher Scientific). PBS was placed in the acceptor well. To stop the assay, samples were collected from both wells, and an equal volume of plasma was added to the PBS sample, and vice versa. Proteins were then precipitated by adding three volumes of ice-cold methanol. Samples were mixed gently, kept at −20 °C for 30 min, and then stored at 4 °C overnight. The next day, the samples were centrifuged, and the supernatants were diluted with four volumes of 30% methanol in water. The samples were then analyzed using the Echo-MS system (SCIEX) with MRM transition monitoring, except for compound 3af, which was analyzed by LC–MS/MS as described in the plasma stability assay.

[4] = Cytotoxicity assay, panel of five human cell lines; type: cell-based; details: HEK293, HepG2, THP-1, Jurkat E6.1 and LX2 cells; summary in text across panel of five human cell lines
Experimental: To evaluate in vitro cytotoxicity and support its potential application in inflammatory and fibrotic disease models, the following panel of cell lines, representing the relevant biological systems, was used: HEK293, HepG2, THP1, Jurkat E6.1, and LX2. HEK293, HepG2, and Jurkat E6.1 cells were seeded at 400,000 cells/mL, THP1 cells at 500,000 cells/mL, and LX2 cells at 200,000 cells/mL in 96-well plates (cell culture-treated, VWR) in 100 μL/well. Cells were treated with the tested compounds in a serial dilution (300, 100, 33.3, 11.1, and 3.7 μM) for 24 h. Untreated cells served as negative controls to establish the baseline viability threshold. Cell viability was assessed using a viability dye (Zombie Violet Fixable Viability Kit, BioLegend) following the manufacturer’s instructions and analyzed by flow cytometry (see below).
(§1) Cells or beads from screening assays prepared for flow cytometry were analyzed by the CytoFlex S instrument (Beckman Coulter). Data acquisition was performed using CytExpert software (v2.5, Beckman Coulter). Debris was excluded by forward and side scatter gating, followed by doublet exclusion. Data were analyzed using FlowJo software (v10, BD Biosciences).

[5] = biological target: T2, intracellular Gal-3 in THP1 cells (Homo sapiens, UniProt P17931); test: Intracellular Gal-3 target engagement in THP1 cells (flow cytometry, MFI); type: cell-based; details: 2 h
T2 construct: Untreated cells served as negative and baseline controls representing maximum intracellular Gal-3 levels; endogenous in cells; host or cells: THP1 (monocyte-like or PMA-differentiated macrophage-like)
Experimental: THP1 cells were used to assess the binding of the tested compounds to Gal-3. Cells were either maintained in suspension as undifferentiated monocyte-like cells or differentiated into macrophage-like cells by overnight treatment with phorbol 12-myristate 13-acetate (PMA, Sigma-Aldrich) at a final concentration of 10 ng/mL. […] Untreated cells served as negative and baseline controls representing maximum intracellular Gal-3 levels. Cells were then harvested and intracellularly stained either with galectin-3 monoclonal antibody eF660 (Invitrogen, Thermo Fisher Scientific) or a relevant isotype antibody (Invitrogen, Thermo Fisher Scientific) for flow cytometric analyses (see below). A dose-dependent decrease in Gal-3 signal upon compound treatment was used to assess intracellular target engagement expressed as median fluorescent intensity (MFI).
as §1

T1 sequence (P09382 2-135): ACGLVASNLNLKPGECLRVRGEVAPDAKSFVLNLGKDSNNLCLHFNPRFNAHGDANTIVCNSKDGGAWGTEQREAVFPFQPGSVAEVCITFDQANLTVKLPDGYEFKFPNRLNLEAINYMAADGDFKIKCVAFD
T2 sequence (P17931 whole entry): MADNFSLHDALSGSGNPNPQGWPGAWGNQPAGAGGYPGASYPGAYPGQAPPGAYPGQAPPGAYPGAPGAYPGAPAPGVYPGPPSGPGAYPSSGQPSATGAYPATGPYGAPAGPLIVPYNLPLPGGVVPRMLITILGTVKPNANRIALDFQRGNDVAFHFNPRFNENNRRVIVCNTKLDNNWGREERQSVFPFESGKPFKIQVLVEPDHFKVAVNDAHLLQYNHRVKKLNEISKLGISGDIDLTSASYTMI

IC50 ([1]; CSV supplement, unrounded mean, read-out: Gal1_IC50_mean_uM): 4.34 µM
Kd ([1]; CSV supplement, unrounded mean, read-out: Gal1_Kd_mean_uM): 2.18 µM
Kd ([1]; competitive fluorescence polarization, mean ± SD, read-out: Kd Gal-1): 2.2 ± 0.3 µM
IC50 ([1]; four-parameter logistic model, mean ± SD, read-out: IC50 Gal-1): 4.3 ± 0.2 µM
microsomal CLint at 10 μM [2]: < 2 µL/min/mg
fraction unbound at 4 h, 10 μM [3]: 0.1
intracellular Gal-3 signal (MFI), macrophage-like THP1 cells ([5]; (+)PMA differentiated THP1, 3.7–300 μM): concentration-dependent reduction
intracellular Gal-3 signal (MFI), monocyte-like THP1 cells ([5]; (−)PMA undifferentiated THP1, 3.7–300 μM): concentration-dependent reduction
SMILES: CC(=O)N(c1cc(C(=O)O)cc2[nH]ccc12)[C@@H]1O[C@H](CO)[C@@H](S[C@@H]2O[C@H](CO)[C@H](O)[C@H](n3cc(-c4cccc(F)c4)nn3)[C@H]2O)[C@H](O)[C@H]1O [Compound 11, N-[4-S-(3-Deoxy-3-(4-(3-fluorophenyl)-1H-1,2,3-triazol-1-yl)-β-D-galactopyranosyl)-4-thio-β-D-glucopyranosyl]-N-(6-carboxy-1H-indol-4-yl)acetamide]
CC50 at 24 h [4]: > 300 µM
